Laboratory results as given in patent publication US10357539B2, “Use of peptides that block metadherin-SND1 interaction as treatment for cancer” (THE TRUSTEES OF PRINCETON UNIVERSITY, priority 2014, dated 2019).

Assays:
PyMT;Mtdh−/− pMECs = experiment: CPT-induced apoptosis of MECs (PI and Hoechst staining); format: cell-based, mouse; details: CPT to induce DNA replication stress
Protocol: (§1) FIGS. 9A-I illustrates that MTDH confers survival advantage by interacting with and stabilizing pro-survival protein SND1 under stress. (FIG. 9A) Quantification of cleaved caspase 3-positive MECs from normal or MMTV-PyMT preneoplastic glands (n>3) of WT (left column) or KO females (right column). (FIG. 9B) The effect of CPT on the apoptosis of PyMT;Mtdh−/− pMECs reconstituted with indicated Mtdh constructs (left column: VEC; middle column: WT; right column: W391D) was determined by PI and Hoechst staining. (FIG. 9C) The effect of CPT on the apoptosis of control (left column) or SND1-KD (right column) PyMT;Mtdh+/+ pMECs. (FIG. 9D) Protein levels of SND1 and β-actin (loading control) in control or MTDH-KD PyMT;Mtdh+/+ pMECs treated with CPT at indicated concentrations for 36 hours. Degradation curve (right) represents the average of 3 independent experiments. (FIG. 9E) Western blotting of SND1, MTDH and β-actin (loading control) in PyMT;Mtdh−/− MECs reconstituted with indicated constructs after CPT treatment for 48 hours. Degradation curves (right) represent average of 3 independent experiments. […] Z scores were calculated based on gene expression changes and gene functions as specified by the ingenuity knowledge base. […]

SND1 = SND1 protein levels in MECs treated with CPT (western blot); format: cell-based, mouse; details: PyMT;Mtdh+/+ pMECs, CPT at indicated concentrations for 36 hours
Protocol: as §1

MTDH = molecular target: T1, MTDH (Mus musculus, UniProt Q80WJ7); experiment: Anti-MTDH immunoprecipitation from SND1-KD PyMT;Mtdh+/+ tumor cells reconstituted with murine SND1; format: cell-based; details: shRNA-resistant construct in SND1-KD PyMT;Mtdh+/+ tumor cells
T1 construct: endogenous in cells; host or cells: SND1-KD PyMT;Mtdh+/+ mouse mammary tumor cells
T1 sequence (Q80WJ7 1-579): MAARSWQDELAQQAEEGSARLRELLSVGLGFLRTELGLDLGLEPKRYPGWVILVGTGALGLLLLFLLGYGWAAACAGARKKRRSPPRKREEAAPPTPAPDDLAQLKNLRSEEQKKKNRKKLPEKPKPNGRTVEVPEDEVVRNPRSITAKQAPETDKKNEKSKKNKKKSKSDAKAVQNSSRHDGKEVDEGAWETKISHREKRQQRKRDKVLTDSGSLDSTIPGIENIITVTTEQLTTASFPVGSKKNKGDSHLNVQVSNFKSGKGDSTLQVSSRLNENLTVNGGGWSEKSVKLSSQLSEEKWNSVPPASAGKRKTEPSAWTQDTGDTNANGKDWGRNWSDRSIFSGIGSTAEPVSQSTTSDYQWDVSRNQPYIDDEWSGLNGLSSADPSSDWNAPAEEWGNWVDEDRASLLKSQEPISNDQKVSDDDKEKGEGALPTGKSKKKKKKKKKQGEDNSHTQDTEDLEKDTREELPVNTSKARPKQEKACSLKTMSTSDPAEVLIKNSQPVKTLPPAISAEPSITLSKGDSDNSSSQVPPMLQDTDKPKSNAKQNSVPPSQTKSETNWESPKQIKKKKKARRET
Protocol: (FIG. 24A) Lysates from SND1-KD PyMT;Mtdh+/+ tumor cells reconstituted with vector control, WT or mutant shRNA-resistant murine SND1 were immunoprecipitated with anti-MTDH antibody and immunoblotted for indicated proteins. (FIG. 24B) Mammosphere assays were performed with SND1-KD PyMT;Mtdh+/+ tumor cells reconstituted with vector control or indicated SND1 constructs. (FIG. 24C, FIG. 24D) Mammary tumor incidence (FIG. 24C) and tumor growth curve (FIG. 24D) after orthotopic transplantations of SND1-KD PyMT;Mtdh+/+ tumor cells reconstituted with indicated constructs. Statistics: (FIG. 24B, FIG. 24D) Student's t-test. Data represent mean±SEM. (FIG. 24C) Chi-square test. […], *p<0.01, *p<0.05.
Immunoprecipitation and western blot: For in vivo immunoprecipitation (IP) experiments, cultured cells were washed in cold PBS and lysed in lysis buffer (20 mM Tris pH 7.4, 0.15 M NaCl, 1 mM EDTA, 1 mM EGTA, 1% Tx-100, 0.0025 M Na2P2O7, 1 mM β-glycerolphosphate, 1 mM Na3VO4, and 1 mM NaF) with an EDTA-free protease inhibitor mixture (Roche Applied Science) and PMSF. Cell lysates were then incubated on ice for 10 min, centrifuged, and precleared by incubating with protein A/G beads (Santa Cruz Biotechnology) for 1 h at 4° C. For IP bead preparation, 30 μl of protein A/G beads were incubated with 5 μg of antibodies for 2 h at 4° C. […]

CC[C@@]1(O)C(=O)OCc2c1cc1n(c2=O)Cc2cc3ccccc3nc2-1 [CPT, camptothecin]
apoptosis of MECs (PyMT;Mtdh−/− pMECs): induced apoptosis of MECs in a dosage-dependent manner
SND1 protein levels (SND1): drug dosage-dependent decrease of SND1 protein levels

B1: murine SND1 R255E: shRNA-resistant murine SND1 mutant R255E (protein, UniProt Q78PY7 2-910, looked up, variant R255E)
Staphylococcal nuclease …: ASSAQSSGSSGGPAVPTVQRGIVKMVLSGCAIIVRGQPRGGPPPERQINLSNIRAGNLARRAAATQPDGKDTPDEPWAFPAREFLRKKLIGKEVCFTIENKTPQGREYGMIYLGKDTNGENIAESLVAEGLATRREGMRANNPEQNRLSECEEQAKASKKGMWSEGNGSHTIRDLKYTIENPRHFVDSHHQKPVNAIIEHVRDGSVVRALLLPGHHLVTVMLSGIKCPTFRRETDGSETPEPFAAEAKFFTESELLQRDVQIILESCHNQNLLGTILHPNGNITELLLKEGFARCVDWSIAVYTRGAEKLRAAERFAKERRLRIWRDYVPPTANLDQKDKQFVAKVMQVLNADAIVVKLNSGDYKTIHLSSIRPPRLEGDNIQDKNKKLRPLYDIPYMFEAREFLRKKLIGKKVNVTVDYIRPASPATETVPAFSERTCATVTIGGINIAEALVSKGLATVIRYRQDDDQRSSHYDELLAAEARAIKNGKGLHSKKEVPIHRVADISGDTQKAKQFLPFLQRAGRSEAVVEYVFSGSRLKLYLPKETCLITFLLAGIECPRGARNLPGLVQEGEPFSEEATLFTKELVLQREVEVEVESMDKAGNFIGWLHMDGANLSVLLVEQALSKVHFTAERSAYYKPLLSAEEAAKQRKEKVWAHYEERPVEEVMPVLEEKERSASYKPVFVTEITDDLHFYVQDVETGTQLEKLMENMRNDISSHPPVEGSYAPRRGEFCIAKFVDGEWYRARVEKVESPAKVHVFYIDYGNREILPSTRLGTLPPAFSTRVLPAQATEYAFAFIQVPQDEDARTDAVDSVVRDIQNTQCLLNVEHLSASCPHVTLQFADSKGDVGLGLVKEGLVMVEVRKEKQFQKVITEYLNAQESAKSARLNLWRYGDFRADDADEFGYSR
modifications: shRNA-resistant
interaction of murine SND1 mutants with MTDH (MTDH): nearly completely abolished the interaction with MTDH
